The text below walks through data of US20200393446A1, “BIOLUMINESCENT SCREENING TEST FOR DETECTING CELL CYTOLYSIS” (Centre National de la Recherche Scientifique (CNRS), priority 2017, published 2020).

For one series, the system named is NK cells. The experiment in a line: NK cell cytotoxicity assay: NanoLuc release from K562-NanoLuc cells co-cultured with compound-treated PBMC. It counts as cell-based, human. The following applies: PBMCs incubated 16 hours with Clobenpropit, 400,000 PBMCs/16,000 K562-NanoLuc, four hours of co-culture, FIG. 3B. How it is done:
PBMC from healthy donors were incubated overnight in the absence or presence of compounds to be tested. Unless specified otherwise, PBMC were plated in 96-well round-bottom plates at a concentration of 400,000 cells/well in a final volume of 100 μL. After 16 hours, 16.000 K562-NanoLuc or twINNE cells were added to cultures wells (100 μL of cell suspension at 160,000 cells/ml). Total volume in culture wells was 200 μL, and plates were centrifuged briefly for 2 min at 1,200 rpm. Unless specified otherwise, 20 μL of culture supernatants were collected and NanoLuc activity was determined by adding 40 μL of RPMI-1640 and 30 μL of NanoLuc reagent (Promega) in black, flat-bottom, 96½-well plates. Bioluminescence was measured during 0.1 s with a luminometer (Enspire; Perkin Elmer).

The test system of another series is K562-NanoLuc cells. As to the kind of experiment: Lysis of K562-NanoLuc cells by detergent, NanoLuc activity in supernatant. Type of series: cell-based, human. The following applies: cells contacted with detergent, FIG. 1A.

Regarding `NC(=NCc1ccc(Cl)cc1)SCCCc1cnc[nH]1` [Clobenpropit], the “cytolytic activity of NK cells (NanoLuc activity in supernatant)” value in the series with NK cells is “completely inhibited”.

In the case of NP40, the “activity of the NanoLuc enzyme in the supernatant of K562-NanoLuc cells” value in the series with K562-NanoLuc cells is listed as “increased”.
